{
  "source": "patent US20060110376A1",
  "about": "“MDA-7 and free radicals in the treatment of cancer” (priority 2002, published 2006)",
  "type_in_all_cases": "cell-based, human",
  "key": {"[1]": {"system": "prostate carcinoma cell lines (DU-145, PC-3, LNCaP)", "assay": "MTT viability assay", "conditions": "48 h", "description": "(§1) Cells were seeded in 96-well plates, pretreated with NAC (5 mM) or Tiron (1 mM) for 2 h and infected with Ad.mda-7. Forty eight hours later, viability was assessed by MTT assay. […] Cells were seeded in 96-well plates, infected with Ad.mda-7 and treated with As2O3 (10 μM) or NSC656240 (400 nM). Forty eight h later, viability was assessed by MTT assay. Panel C. […] After treatment, cells were stained using DCF-DA and analyzed using flow cytometry. […] After treatment, cells were washed and stained with Annexin V-FITC conjugate. Late apoptotic and necrotic cells were excluded using PI staining. Results are the mean of three independent experiments performed with triplicate samples±S.E.\n[…] Cellular viability was assessed by MTT assay 48 h after infection (Panel A). Mitochondrial membrane potential (DiOC6(3) staining, Panel B) and apoptotic changes (Annexin V staining, Panel C) were assessed 18 h (LNCaP cells) and 24 h (DU-145, PC-3 and P69 cells) after infection.\nMTT Viability Assays. This method was performed as described (Lebedeva et al., 2000, Cancer Research 60:6052-6060). […] At the indicated time points, medium was removed, and fresh medium containing 0.5 mg/ml MTT was added to each well. The cells were incubated at 37° C. for 4 h and then an equal volume of solubilization solution (0.01N HCl in 10% SDS) was added to each well and mixed thoroughly. The optical density from the plates was read on a BioRad Microplate Reader Model 550 at 595 nm."}, "[2]": {"system": "prostate carcinoma cells", "assay": "ROS production (DCF fluorescence, flow cytometry)", "description": "as §1"}, "[3]": {"system": "pancreatic carcinoma cells", "assay": "MTT viability assay", "description": "MTT Viability Assays. Cell viability was assessed by MTT assays as described (Lebedeva et al., 2000, Cancer Research 60:6052-6060). Briefly, cells were seeded in 96-well tissue culture plates (1.5×10^3 cells per well) and treated with various agents. At the indicated times, medium was removed, and fresh medium containing 0.5 mg/ml MTT was added to each well. The cells were incubated at 37° C. for 4 h and then an equal volume of solubilization solution (0.01N HCl in 10% SDS) was added to each well and mixed thoroughly. The optical density from the plates was read on a BioRad Microplate Reader Model 550 at 595 nm."}, "[4]": {"system": "pancreatic carcinoma cells", "assay": "Apoptosis (annexin V exposure, hypodiploid A0 cells)", "description": "FIG. 39. Combined treatment of pancreatic carcinoma cells by NSC656240 and Ad.mda-7 increases levels of annexin V in pancreatic cancer cells irrespective of K-ras status.\nFIG. 40. NAC administration prevents the apoptosis of pancreatic cancer cells induced by treatment of pancreatic carcinoma cells by NSC656240 or Ar2O3 and Ad.mda-7.\nFIG. 41. Combined treatment of pancreatic carcinoma cells by NSC656240 or Ar2O3 and Ad.mda-7 causes apoptosis irrespective of K-ras status.\nAnnexin V Binding Assays. Cells were trypsinized, washed once with complete medium and stained with FITC-labeled Annexin-V (kit from Oncogene Research Products, Boston, Mass.) according to the manufacturer's instructions. Flow cytometry was performed immediately after staining.\nCell Cycle Analysis. Cells were trypsinized, washed 2× with PBS and fixed in 70% ethanol overnight at −20° C. Then cells were washed 2 times with PBS, and aliquots of 1×10^6 cells were resuspended in 1 ml of PBS containing 1 mg/ml of RNase A and 0.5 mg/ml of propidium iodide. After 30 min incubation, cells were analyzed by flow cytometry using a FACScan flow cytometer (Becton Dickinson, San Jose, Calif.)."}, "[5]": {"system": "pancreatic cancer cell lines", "assay": "Western blotting of K-ras and MDA-7 protein", "description": "FIG. 43. MDA-7 expression in pancreatic cancer cell lines in the presence or absence of Ad.mda-7, Ad.K-rasAS, or NSC656243. The presence of MDA-7 in mutant K-ras cell lines requires expression of both mda-7 and the antisense K-ras construct, and is potentiated by NSC656243.\nFIG. 45. The MDA-7 expression observed in the PANC-1 or BxPC-3 cell lines following administration of Ad.mda-7 in combination with either NSC656240 or Ar2O3 is abrogated by NAC administration.\nPreparation of Cell Extracts and Western Blotting Analysis. Cells were washed 2× with cold PBS and lysed on ice for 30 min in […] of cold RIPA buffer [50 mM Tris-HCl (pH 8.0), 150 mM NaCl, 0.1% SDS, 1% NP40, and 0.5% sodium deoxycholate] with freshly added 0.1 mg/ml phenylmethylsulfonyl fluoride, 1 mM sodium orthovanadate, and 1 mg/ml aprotinin. After cell debris were removed by centrifugation at 14,000 g for 10 min at 4° C., protein concentrations were determined using the Bio-Rad protein assay system (Bio-Rad Laboratories, Richmond, Calif.). Aliquots of cell extracts containing […] of total protein were resolved in 12% SDS-PAGE and transferred to Immobilon-P PVDF membranes (Millipore Corp., Bedford, Mass.). Filters were blocked for 1 h at room temperature in Blotto A [5% nonfat milk powder in TBS-T: 10 mM Tris-HCl (pH 8.0), 150 mM NaCl, 0.05% Tween 20], and then incubated for 1 h at room temperature in Blotto A containing a 1:1000 dilution of rabbit anti MDA-7 polyclonal antibody. After washing in TBS-T buffer (3×5 min, RT), filters were incubated for 1 h at room temperature in Blotto A containing a 1:10,000 dilution of peroxidase conjugated anti-rabbit secondary antibody (Amersham, Arlington Heights, Ill.). After washing in TBS-T, ECL was performed according to the manufacturer's recommendation."}, "[6]": {"system": "pancreatic carcinoma cells", "assay": "ROS production (flow cytometry)", "description": "FIG. 46. Combined treatment by NSC656240 or Ar2O3 and Ad.mda-7 causes overproduction of ROS in pancreatic carcinoma cells.\nAssessment of ROS Production. To determine ROS production, cells were stained with 2.5 μM HE or 5 μM DCFH-DA in PBS for 30 min at 37° C. in the dark. Immediately after staining, cells were analyzed by flow cytometry (FACSscan, Becton-Dickinson, Mountain View, Calif.), and data were analyzed using CellQuest software, version 3.1 (Becton Dickinson). For inhibition experiments, NAC (Sigma) was added 2 h prior to infection with Ad.mda-7. In all cases, cells were gated to exclude cell debris."}, "[7]": {"system": "pancreatic cancer cells stably transformed to express MDA-7", "assay": "Apoptosis and cell death in cells stably expressing MDA-7", "description": "FIG. 49. Induction of apoptosis in pancreatic cancer cell lines (PANC-1) stably expressing MDA-7.\nFIG. 50. Induction of apoptosis in pancreatic cancer cell lines (Mia PaCa-2) stably expressing MDA-7.\nFIG. 51. Induction of apoptosis in pancreatic cancer cell lines (FM516 or BxPC-3) stably expressing MDA-7."}},
  "data": [
    {"molecule": "CC(=O)N[C@@H](CS)C(=O)O", "note": "[NAC, N-acetyl-cysteine]", "values": [
      {"measurement": "effect of antioxidant on cell death promoting activity of Ad.mda-7", "setting": "[1]; NAC 5 mM, Tiron 1 mM", "value": "abrogated"},
      {"measurement": "effect of NAC on Ad.mda-7-induced ROS generation", "setting": "[2]; non-cytotoxic dose of NAC", "value": "suppressed Ad.mda-7-induced ROS generation"},
      {"measurement": "effect of N-acetyl-cysteine on death after combinational treatment", "setting": "[3]", "value": "death can be prevented"},
      {"measurement": "effect of NAC on apoptosis after combination treatment", "setting": "[4]", "value": "prevents apoptosis"},
      {"measurement": "effect of NAC on MDA-7 expression and secretion", "setting": "[5]; both type of cells", "value": "abrogates MDA-7 expression and secretion"},
      {"measurement": "effect of NAC on ROS production", "setting": "[6]", "value": "blocked ROS production"},
      {"measurement": "effect of NAC on apoptosis and cell death", "setting": "[7]", "value": "blocks these processes"}
    ]},
    {"molecule": "arsenic trioxide", "values": [
      {"measurement": "effect of ROS-producing agent on cell death of Ad.mda-7-infected cells", "setting": "[1]; As2O3 10 μM, NSC656240 400 nM", "value": "potentiated cell death"},
      {"measurement": "ROS levels", "setting": "[2]; treated with NSC656240 or As2O3", "value": "ROS levels increased proportionally"},
      {"measurement": "cell death, combinational treatment with Ad.mda-7", "setting": "[3]; Ad.mda-7 100 p.f.u./cell", "value": "caused death of these cells irrespective of their K-ras status"},
      {"measurement": "apoptosis, combination treatment with Ad.mda-7", "setting": "[4]; annexin V exposure and A0 population", "value": "caused apoptosis in pancreatic carcinoma cells independently of their K-ras status"},
      {"measurement": "MDA-7 protein expression and secretion, combined treatment with Ad.mda-7", "setting": "[5]; wt and mutated K-ras pancreatic cancer cell lines", "value": "leads to MDA-7 protein expression and secretion"},
      {"measurement": "ROS production, combined treatment with Ad.mda-7", "setting": "[6]", "value": "Caused ROS overproduction"},
      {"measurement": "apoptosis and cell death", "setting": "[7]", "value": "caused apoptosis and cell death"}
    ]}
  ]
}
